For two molecules, TGI results are on record in PubChem BioAssay (NCI).

Where “and” joins values, the source holds several entries; their conditions need not be identical. Equal entries are not always repeated.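 How tested: cells in 96-well plates exposed to compound for 48 hours at five concentrations. The concentration for full growth arrest is given as TGI.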 A value given as a limit tells only on which side of the number the result lay.

Test systems include SK-MEL-2 melanoma; MALME-3M melanoma; SNB-19 CNS; U251 CNS; HT29 colon; LOX IMVI melanoma; KM12 colon; NCI-H23 lung; UACC-62 melanoma; M14 melanoma.
Common to all, as to assay: NCI-60 cell line screen, 48 h

On to `CC1=CC(=O)CC2(C)CCC(C(C)CC(=O)CC(C)C)CC12OO` (stereo not given), for which the TGI is 37.9 µM and 31.9 µM with SK-MEL-2 melanoma; > 100 µM and 36.7 µM in the test with MALME-3M melanoma; over 100 µM in the test on SNB-19 CNS; 31.4 µM and 33.1 µM in the test with U251 CNS; 43.2 µM and 31.1 µM in the test on HT29 colon; 31.5 µM and 27.9 µM in the test with LOX IMVI melanoma. Moreover, the TGI in the test on KM12 colon was 33.2 µM and 29.4 µM; in the test on NCI-H23 lung it was 39.8 µM and 54.9 µM; with UACC-62 melanoma, 31.9 µM and 35.2 µM; in the test on M14 melanoma, 32.4 µM and 30.1 µM.
Turning to `Nc1nc(Nc2ccc(Cl)c(Cl)c2)nc2nc[nH]c12`, the TGI in the test on SK-MEL-2 melanoma was determined as 39.2 µM; in the test on MALME-3M melanoma, 32.5 µM; with SNB-19 CNS, 32 µM; with U251 CNS, 36.5 µM; with HT29 colon it was 30.6 µM; in the test with LOX IMVI melanoma it was 36.9 µM. Further, the TGI with KM12 colon is 28.6 µM; in the test with NCI-H23 lung, 34.9 µM; with UACC-62 melanoma, 29 µM; in the test on M14 melanoma it was 29.8 µM.
